# Measured values from patent US20110152246A1, “NOVEL INHIBITORS OF HEPATITIS C VIRUS REPLICATION” (InterMune, Inc., priority 2009, published 2011).
# pEC50: −log10 of the molar value. Read-outs that look alike come from different tables or passages of the source.
# System: Huh7 cells containing HCV replicons with an integrated luciferase reporter gene
# Experiment: HCV Replicon Assay (luciferase reporter)
# Format: cell-based
# Settings: Hepatitis C virus; for pEC50: Huh-7, Huh7 HCV replicon cells, luciferase activity, approximately 48 hr incubation, read-out: EC50
# Protocol: Huh7 cells containing HCV replicons with an integrated luciferase reporter gene are maintained at 37° C. in 5% CO2 in Dulbecco's modified Eagle's medium (DMEM; Mediatech, Herndon, Va.) containing 10% heat-inactivated fetal bovine serum (FBS; Mediatech, Herndon, Va.), 2 mM L-glutamine (Cambrex Bioscience, Walkersville, Md.), 1% non essential amino acids (Lonza, Walkersville, Md.), 50 IU/mL penicillin (Mediatech, Herndon, Va.), […] streptomycin (Mediatech, Herndon, Va.) and 0.5 mg/mL G418 (Promega, Madison, Wis.). Cells are sub-divided 1:3 or 4 every 2-3 days.
# 24 h prior to the assay, Huh7 cells containing sub-genomic HCV replicons are collected, counted, and plated in Nunclon 96-well tissue culture plates (ThermoFisher, Rochester, N.Y.) at 5000 cells/well in […] standard maintenance medium (above) and incubated in the conditions above. To initiate the assay, culture medium is removed, and replaced with […] maintenance media lacking G418. Test compounds are serially diluted three-fold in dimethyl sulfoxide (DMSO) in two duplicate rows for each EC50 determination. These compound solutions are diluted ten-fold in DMEM lacking serum and G418. […] of these compound solutions in media are added to duplicate tissue culture plates. The final volume is 100 μL with a DMSO concentration of 1%. Compound concentrations are adjusted to appropriately define a dose response curve. Typical dilution series range from […] to 1.69 nM final concentrations to 1 nM to 16.9 fM final. Plates are incubated at 37° C. for approximately 48 hr.
# Following incubation, media is removed from one of the two duplicate plates and replicon-reporter luciferase activity is measured using a Bright-Glo luciferase assay kit (Promega, Madison, Wis.) according to manufacturer's instructions. Semi-log plots of luciferase activity versus the logarithm of compound concentration are fit to a 4-parameter logistic function using XLfit software (IDBS Inc., Guildford, UK) to determine EC50.
Compound,pEC50,"EC50 (Huh-7, 48 h, read-out: EC50 nM) [nM]"
COC(=O)N[C@H](C(=O)N1CCC[C@H]1C(=O)Nc1ccc(-c2ccc3cc(NC(=O)[C@@H]4CCCN4C(=O)Cc4ccccc4)ccc3c2)cn1)C(C)C [Compound 208],> 8.00,
COC(=O)N[C@H](C(=O)N1CCC[C@H]1c1nc(-c2ccc(-c3ccc(-c4c[nH]c([C@@H]5CCCN5C(=O)[C@@H](NC(=O)OC)C(C)C)n4)c4[nH]cc(C)c34)cc2)c[nH]1)C(C)C [Compound 330],> 8.00,
COC(=O)N[C@H](C(=O)N1CCC[C@H]1C(=O)Nc1ncc(-c2ccc3nc(NC(=O)[C@@H]4CCCN4C(=O)Cc4ccccc4)ccc3c2)cn1)C(C)C [Compound 214],7.00 to 8.00,
COC(=O)N[C@H](C(=O)N1CCC[C@H]1c1nc(-c2ccc(-c3ccc(-c4c[nH]c([C@@H]5CCCN5C(=O)[C@@H](NC(=O)OC)C(C)C)n4)c4sccc34)cc2)c[nH]1)C(C)C [Compound 311],> 8.00,
COC(=O)N[C@H](C(=O)N1CCC[C@H]1C(=O)Nc1ccc(C(=O)Nc2ccc(NC(=O)[C@@H]3CCCN3C(=O)Cc3ccccc3)cc2)cc1)C(C)C [Compound 104],,10 to 100
COC(=O)N[C@H](C(=O)N1CCC[C@H]1c1nc(-c2ccc(-c3ccc(-c4c[nH]c([C@@H]5CCCN5C(=O)[C@@H](NC(=O)OC)C(C)C)n4)c4c3CCC4)cc2)c[nH]1)C(C)C [Compound 306],> 8.00,
O=C(Nc1ccc(NC(=O)[C@@H]2CCCN2C(=O)Cc2ccccc2)cc1)c1ccc(NC(=O)[C@@H]2CCCN2C(=O)Cc2ccccc2)cc1 [Compound 101],7.00 to 8.00,
